Values quoted from earlier work, collected in patent publication US20060204442A1, “Magnetically targetable particles comprising magnetic components and biocompatible polymers for site-specific delivery of biologically active agents” (Bankruptcy Estate of Ferx, Inc., priority 2003, published 2006).

System: cell lines of the national Cancer Institute's Anticancer Drug Screen Panel
Settings: Rixe et al., Biochem Pharmacol 52

[NH2][Pt]([NH2])([Cl])[Cl] [CDDP, cisplatin]
IC50, published value: 0.537 µg/mL
